Results: Sander's compilation of Henry's law constants (doi:10.1021/ie980743h)

Tests used:
[1] = Henry solubility constant Hcp at 298.15 K (mol/(m3 Pa)); conditions: reference: Dohnal and Hovorka (1999)
[2] = Henry solubility constant Hcp at 293 K (mol/(m3 Pa)); conditions: reference: Dohnal and Hovorka (1999)

Row | Compound | Henry solubility constant Hcp [1] | Henry solubility constant Hcp at 293 K [2]
1 | Cc1cccc(C)c1 [1,3-dimethylbenzene] | 0.0015 | –
2 | Clc1ccccc1 [chlorobenzene] | – | 0.0036
3 | c1ccccc1 [benzene] | 0.0018 | –
4 | Cc1ccccc1C [1,2-dimethylbenzene] | 0.0021 | –
5 | BrCBr [dibromomethane] | – | 0.014
6 | Cc1ccc(C)cc1 [1,4-dimethylbenzene] | 0.0015 | –
7 | Cc1ccccc1 [methylbenzene] | 0.0016 | –
8 | CC(Cl)CCl (centres undefined) [1,2-dichloropropane] | – | 0.0044
9 | ClC(Cl)=C(Cl)Cl [tetrachloroethene] | – | 0.00086
10 | CC(C)OC(C)C [diisopropyl ether] | 0.0047 | –
11 | C=Cc1ccccc1 [ethenylbenzene] | 0.0034 | –
12 | CCC(C)(C)OC [2-methoxy-2-methylbutane] | 0.01 | –
13 | ClCC(Cl)Cl [1,1,2-trichloroethane] | – | 0.015
14 | CCCCCl [1-chlorobutane] | – | 0.00067
